The text below walks through data of ChEMBL document CHEMBL5728485, “Biaryloxy derivatives as TTX-S blockers” (2021).

The target in the experiment is Sodium channel protein type 9 subunit alpha (Homo sapiens, UniProt Q15858). Nature of the experiment: EFS-FRET Assay: This screen is used to determine the effects of compounds on human Nav1.7 channels, utilizing electrical field stimulation (EFS) system in 96-well plate format on FDSS (Hamamatsu Photonics) platform. The changes of membrane potential are monitored with FRET dye pair, DiSBAC2(3) and PTS 18.
Sequence of Sodium channel protein type 9 subunit alpha (Q15858 whole entry): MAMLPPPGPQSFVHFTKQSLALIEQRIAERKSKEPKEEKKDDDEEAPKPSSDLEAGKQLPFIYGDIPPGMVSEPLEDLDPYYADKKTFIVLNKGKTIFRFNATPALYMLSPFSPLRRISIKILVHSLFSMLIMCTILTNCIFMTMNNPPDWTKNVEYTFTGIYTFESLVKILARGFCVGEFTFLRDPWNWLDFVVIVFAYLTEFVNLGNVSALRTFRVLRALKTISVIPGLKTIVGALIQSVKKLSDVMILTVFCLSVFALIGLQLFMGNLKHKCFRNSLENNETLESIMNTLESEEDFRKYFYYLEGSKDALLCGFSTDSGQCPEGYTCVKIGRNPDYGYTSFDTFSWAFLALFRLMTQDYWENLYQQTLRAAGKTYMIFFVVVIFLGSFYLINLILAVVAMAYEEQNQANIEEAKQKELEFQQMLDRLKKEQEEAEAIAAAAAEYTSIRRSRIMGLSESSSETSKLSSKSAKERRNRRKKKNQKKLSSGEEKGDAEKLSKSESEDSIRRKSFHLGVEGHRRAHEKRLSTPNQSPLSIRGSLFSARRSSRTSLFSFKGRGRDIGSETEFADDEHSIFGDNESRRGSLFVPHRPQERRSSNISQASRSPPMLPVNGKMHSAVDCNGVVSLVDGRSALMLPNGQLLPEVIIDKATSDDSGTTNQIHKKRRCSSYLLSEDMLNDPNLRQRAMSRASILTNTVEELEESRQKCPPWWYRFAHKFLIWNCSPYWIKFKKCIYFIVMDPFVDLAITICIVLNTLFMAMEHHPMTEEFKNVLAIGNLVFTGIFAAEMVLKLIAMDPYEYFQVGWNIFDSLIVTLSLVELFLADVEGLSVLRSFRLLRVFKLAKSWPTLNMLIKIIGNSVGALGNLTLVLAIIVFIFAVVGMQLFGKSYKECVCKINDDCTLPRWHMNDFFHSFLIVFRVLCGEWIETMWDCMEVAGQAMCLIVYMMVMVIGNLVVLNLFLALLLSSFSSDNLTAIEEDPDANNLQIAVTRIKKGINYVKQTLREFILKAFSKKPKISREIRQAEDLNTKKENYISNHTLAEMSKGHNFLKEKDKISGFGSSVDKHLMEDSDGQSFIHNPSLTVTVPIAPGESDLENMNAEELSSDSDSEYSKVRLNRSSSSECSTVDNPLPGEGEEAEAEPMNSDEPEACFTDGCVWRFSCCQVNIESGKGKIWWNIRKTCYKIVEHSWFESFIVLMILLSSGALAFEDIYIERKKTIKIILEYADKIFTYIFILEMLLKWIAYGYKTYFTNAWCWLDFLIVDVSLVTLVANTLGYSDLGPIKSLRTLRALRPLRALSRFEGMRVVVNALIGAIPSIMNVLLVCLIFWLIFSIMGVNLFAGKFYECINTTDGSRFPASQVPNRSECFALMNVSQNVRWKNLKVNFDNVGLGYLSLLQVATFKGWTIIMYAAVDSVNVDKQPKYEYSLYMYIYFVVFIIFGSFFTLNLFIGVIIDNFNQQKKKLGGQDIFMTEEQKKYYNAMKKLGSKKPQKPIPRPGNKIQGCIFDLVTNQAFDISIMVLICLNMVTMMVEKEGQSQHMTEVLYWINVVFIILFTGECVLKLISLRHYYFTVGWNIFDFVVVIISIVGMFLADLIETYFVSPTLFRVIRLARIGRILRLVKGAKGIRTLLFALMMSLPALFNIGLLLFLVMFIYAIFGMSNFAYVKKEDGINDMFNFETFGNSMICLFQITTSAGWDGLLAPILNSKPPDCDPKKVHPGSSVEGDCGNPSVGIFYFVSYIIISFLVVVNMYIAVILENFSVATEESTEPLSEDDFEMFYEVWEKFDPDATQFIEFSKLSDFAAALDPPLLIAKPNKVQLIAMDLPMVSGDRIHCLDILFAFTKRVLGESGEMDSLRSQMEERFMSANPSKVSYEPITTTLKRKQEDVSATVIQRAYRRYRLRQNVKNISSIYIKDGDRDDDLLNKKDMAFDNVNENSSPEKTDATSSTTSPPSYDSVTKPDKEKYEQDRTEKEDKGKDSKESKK

Usually IC50 stands for the concentration needed to halve the response being measured. The low end stands for inhibition by little substance, the high end for a need for much substance. `O=C(NS(=O)(=O)C(F)(F)F)c1ccc(COc2cc(F)cc(-c3ccc(OCC4CC4)nc3)c2)cc1` showed a 50% inhibitory concentration (IC50) of less than 0.5 µM.
